Source: US11208403B2, “Pyridone derivatives having tetrahydropyranylmethyl groups” (DAIICHI SANKYO COMPANY, LIMITED, priority 2014, dated 2021)
Where a name gives a salt, the structure may show the parent alone. Read-outs that look alike come from different tables or passages of the source. Each block holds one compound with its values, some of them ahead of it.

Assays:
[1] = target: T1, human MER (intracellular domain, amino acids 528-999, GST fusion) (Homo sapiens (Human), UniProt Q12866); details: read-out: Mer kinase IC50; cell-free, ATP concentration of 1 mM
[2] = test system: HCC827 lung cancer cells; test: In vivo effect of combined use with erlotinib, HCC827 subcutaneous tumors (Test Example 6); details: HCC827 in nude mice, 50 mg/kg bid in combination with 25 mg/kg erlotinib qd
[3] = test system: HCC827 lung cancer cells; test: In vivo effect of combined use with erlotinib-2, erlotinib-resistant HCC827 tumors (Test Example 8); design: species or system mouse
[4] = target: T1, human MER (intracellular domain, amino acids 528-999, GST fusion); test: biochemical
[5] = Ophthalmic histopathological examination after long-term administration (Test Example 4); assay type: in vivo, mouse; details: female NOG mice (n=8), 100 or 200 mg/kg
From the text: Preparation of dosing Solution:
4. Administration Method:
Four continuous doses, 1 drug holiday, 5 continuous doses, 2 drug holidays, 5 continuous doses, 2 drug holidays, 5 continuous doses, 2 drug holidays, and 4 continuous doses.
5. Pathological Examination
On the day following the termination date of the administration period, the mice were euthanized by blood letting under isoflurane anesthesia. Then, their eyeballs were collected, fixed in Davidson's solutions, then embedded in paraffin, and stained with hematoxylin eosin to prepare preparations, which were then histopathologically examined.

[6] = test system: NIH-3T3-Axl #7; test: Antitumor test, NIH-3T3-Axl #7 tumors in NOG mice (Test Example 5); assay type: in vivo, mouse; details: NIH-3T3-Axl #7 in female NOG mice, 5 continuous doses
From the text: (Test Example 5: Antitumor Test)
NIH-3T3-Axl #7 (cells prepared by the transfection of NIH3T3 cells with pLXSN retrovirus having an insert of full-length Axl cDNA) was block-transplanted into female NOG mice.

T1 sequence (Q12866 528-999): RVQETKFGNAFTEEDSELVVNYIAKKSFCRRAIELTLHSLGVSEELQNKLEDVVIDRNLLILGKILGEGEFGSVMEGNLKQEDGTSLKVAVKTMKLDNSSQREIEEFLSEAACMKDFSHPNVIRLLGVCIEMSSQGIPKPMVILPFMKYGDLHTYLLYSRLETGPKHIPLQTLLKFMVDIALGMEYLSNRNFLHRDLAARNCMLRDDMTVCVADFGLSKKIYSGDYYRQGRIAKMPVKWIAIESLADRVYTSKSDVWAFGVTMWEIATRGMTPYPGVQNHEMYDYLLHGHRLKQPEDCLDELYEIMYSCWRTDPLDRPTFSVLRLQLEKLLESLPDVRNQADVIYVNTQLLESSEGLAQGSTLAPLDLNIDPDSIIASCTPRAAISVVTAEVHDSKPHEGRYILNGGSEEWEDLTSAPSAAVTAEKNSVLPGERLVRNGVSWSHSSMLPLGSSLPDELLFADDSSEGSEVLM

IC50 [1]: > 4 µM
Compound: Cc1ccc(-c2cn(CC3CCOCC3)cc(C(=O)Nc3ccc(-c4cc(-c5cnn(C6CCOCC6)c5)cnc4N)nn3)c2=O)cc1 [Example 109]

IC50 [1]: > 4 µM
Compound: COc1cc(-c2cnc(N)c(-c3ccc(NC(=O)c4cn(CC5CCOCC5)cc(-c5ccc(C)cc5)c4=O)nn3)c2)ccc1OCCN1CCOCC1 [Example 110, N-[6-(2-Amino-5-{3-methoxy-4-[2-(morpholin-4-yl)ethoxy]phenyl}pyridin-3-yl)pyridazin-3-yl]-5-(4-methylphenyl)-4-oxo-1-(tetrahydro-2H-pyran-4-ylmethyl)-1,4-dihydropyridine-3-carboxamide]

Compound: COc1cc(-c2cnc(N)c(-c3ccc(NC(=O)c4cn(CC5CCOCC5)cc(-c5ccc(C)cn5)c4=O)cc3F)c2)ccc1OC[C@H]1COCCO1 [Compound B sulfate hydrate]
body weight change [2]: No significant weight loss
tumor size relative to start of administration (estimated tumor volume) [2]: did not reach that at the start of administration even at Day 107
growth inhibition of erlotinib-resistant tumor ([3]; group 2: 50 mg/kg bid + 25 mg/kg erlotinib qd): distinct growth inhibitory effect of erlotinib was confirmed
estimated tumor volume of erlotinib-resistant tumor ([3]; group 2: 50 mg/kg bid + 25 mg/kg erlotinib qd, 116 to 140 days after transplantation): maintained even at 140 days after transplantation
growth inhibition of erlotinib-resistant tumor ([3]; group 3: 25 mg/kg bid + 25 mg/kg erlotinib qd): distinct growth inhibitory effect of erlotinib was confirmed

IC50 [1]: > 4 µM
Compound: COc1cc(-c2cnc(N)c(-c3ccc(NC(=O)c4cn(CC5CCOCC5)cc(-c5ccc(C)s5)c4=O)nn3)c2)ccc1OC[C@H]1COCCO1 [Example 106]

IC50 [4]: 0.102 µM
Compound: COc1ccc(-c2cnc(N)c(-c3ccc(NC(=O)c4cn(CC5CCOCC5)cc(-c5ccc(C)cc5)c4=O)cc3)c2)cc1OC [Example 2]

IC50 [1]: > 4 µM
Compound: COc1cc(-c2cnc(N)c(-c3ccc(NC(=O)c4cn(CC5CCOCC5)cc(-c5ccc(C)cn5)c4=O)nn3)c2)ccc1OC[C@H]1COCCO1 [Example 105]

IC50 [4]: > 4 µM
Compound: COc1ccc(-c2cnc(N)c(-c3cnc(NC(=O)c4cn(CC5CCOCC5)cc(-c5ccc(C)cc5)c4=O)cn3)c2)cc1OC [Example 112, N-{5-[2-Amino-5-(3,4-dimethoxyphenyl)pyridin-3-yl]pyrazin-2-yl}-5-(4-methylphenyl)-4-oxo-1-(tetrahydro-2H-pyran-4-ylmethyl)-1,4-dihydropyridine-3-carboxamide]

histological change in the retina [5]: No histological change in the retinal
Compound: COc1cc(-c2cnc(N)c(-c3ccc(NC(=O)c4cn(CC5CCOCC5)cc(-c5ccc(C)cn5)c4=O)cc3F)c2)ccc1OC[C@H]1COCCO1 [Example 124]

IC50 [1]: > 4 µM
Compound: Cc1ccc(-c2cn(CC3CCOCC3)cc(C(=O)Nc3ccc(-c4cc(-c5cnn(CC6CCOCC6)c5)cnc4N)nn3)c2=O)cc1 [Example 102]

IC50 [1]: > 4 µM
Compound: COc1ccc(-c2cnc(N)c(-c3ccc(NC(=O)c4cn(CC5CCOCC5)cc(-c5ccc(C)cn5)c4=O)nn3)c2)cc1OC [Example 103]

IC50 [1]: > 4 µM
Compound: COc1cc(-c2cnc(N)c(-c3ccc(NC(=O)c4cn(CC5CCOCC5)cc(-c5ccc(C)cc5)c4=O)cn3)c2)c(OC)nn1 [Example 96]

Compound: COc1ccc(-c2cnc(N)c(-c3ccc(NC(=O)c4cn(CC(F)(F)F)cc(-c5ccc(F)cc5)c4=O)cc3)c2)cc1OC [Compound A, reference compound]
antitumor effect ([6]; 4.2 mg/kg oral bid): distinct tumor regression effect
antitumor effect ([6]; 25 mg/kg oral bid): distinct tumor regression effect

IC50 [1]: > 4 µM
Compound: Cc1ccc(-c2cn(CC3CCOCC3)cc(C(=O)Nc3ccc(-c4cc(-c5cc(C)nc(C)c5)cnc4N)nc3)c2=O)cc1 [Example 89]

histological change in the retina [5]: No histological change in the retinal
Compound: COc1cc(-c2cnc(N)c(-c3ccc(NC(=O)c4cn(CC5(C#N)CCOCC5)cc(-c5ccc(F)cc5)c4=O)cc3)c2)ccc1OC[C@H]1COCCO1.CS(=O)(=O)O [Example 129]

IC50 [1]: > 4 µM
Compound: COc1ccc(-c2cnc(N)c(-c3ccc(NC(=O)c4cn(CC5CCOCC5)cc(-c5ccc(OC(F)(F)F)cc5)c4=O)cc3)c2)cc1OC [Example 7]

IC50 [1]: > 4 µM
Compound: Cc1ccc(-c2cn(CC3CCOCC3)cc(C(=O)Nc3ccc(-c4cc(-c5cnn(C[C@H]6COCCO6)c5)cnc4N)nn3)c2=O)cc1 [Example 108]

histological change in the retina [5]: No histological change in the retinal
Compound: COc1cc(-c2cnc(N)c(-c3ccc(NC(=O)c4cn(CC5CCOCC5)cc(-c5ccc(C)cc5)c4=O)cc3)c2)ccc1OC[C@H]1COCCO1.CS(=O)(=O)O [Example 128]
antitumor effect ([6]; 3.1 mg/kg oral bid): almost completely inhibited tumor growth
antitumor effect ([6]; 12.5 mg/kg oral bid): distinct tumor regression effect
antitumor effect ([6]; 50 mg/kg oral bid): distinct tumor regression effect
